# In patent publication US20100285032A1, “ESTROGEN RECEPTOR-RELATED RECEPTOR GAMMA (ERR GAMMA) IN BONE AND CARTILAGE FORMATION AND METHODS AND COMPOSITIONS RELATING TO SAME” (priority 2007, published 2010):
# Columns and labels:
# [1] = molecular target: T1, ERRγ (Homo sapiens, UniProt P62508); conditions: cited from earlier work
# T1 sequence (P62508 1-458): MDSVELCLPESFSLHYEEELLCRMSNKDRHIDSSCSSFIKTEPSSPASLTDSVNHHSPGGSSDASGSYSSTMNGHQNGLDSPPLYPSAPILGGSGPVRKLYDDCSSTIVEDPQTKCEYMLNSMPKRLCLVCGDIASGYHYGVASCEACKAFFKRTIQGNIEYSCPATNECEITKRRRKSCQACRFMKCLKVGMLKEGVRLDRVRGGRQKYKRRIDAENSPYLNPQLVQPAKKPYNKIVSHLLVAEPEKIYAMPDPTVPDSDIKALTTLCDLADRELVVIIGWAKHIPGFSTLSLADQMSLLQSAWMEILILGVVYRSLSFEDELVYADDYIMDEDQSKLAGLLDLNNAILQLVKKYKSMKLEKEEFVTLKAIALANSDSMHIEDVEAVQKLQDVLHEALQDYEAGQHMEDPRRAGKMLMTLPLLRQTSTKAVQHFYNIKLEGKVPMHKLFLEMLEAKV
# [2] = system: ERRs; conditions: cited from earlier work
# [3] = system: PGC-1/ERRα; conditions: cited from earlier work
# [4] = molecular target: T2, ERRα (Homo sapiens, UniProt P11474); conditions: yeast-based and mammalian transient transfection assays; cited from earlier work
# T2 construct: host or cells: yeast
# T2 sequence (P11474 1-423): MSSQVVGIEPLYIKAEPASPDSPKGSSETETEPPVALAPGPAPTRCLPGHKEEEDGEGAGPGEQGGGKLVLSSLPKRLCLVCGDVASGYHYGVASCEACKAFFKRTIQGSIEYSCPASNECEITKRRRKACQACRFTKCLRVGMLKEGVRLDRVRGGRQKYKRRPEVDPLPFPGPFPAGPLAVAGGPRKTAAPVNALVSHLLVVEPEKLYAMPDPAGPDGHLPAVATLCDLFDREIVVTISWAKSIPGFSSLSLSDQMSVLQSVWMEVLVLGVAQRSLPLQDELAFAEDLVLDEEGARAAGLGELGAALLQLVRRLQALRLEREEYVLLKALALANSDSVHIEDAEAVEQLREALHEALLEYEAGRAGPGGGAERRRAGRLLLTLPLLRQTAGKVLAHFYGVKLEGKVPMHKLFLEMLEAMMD
# [5] = system: rat calvaria (RC) cells; assay: Bone nodule formation in rat calvaria (RC) cell cultures after oligonucleotide treatment; format: cell-based
# Procedure: (§1) Cells were isolated from 21-day-old fetal Wistar rat or neonatal mouse calvariae or were the chondrogenic C5.18 cell line and were grown for osteogenic or chondrogenic differentiation as described previously (Bonnelye et al., 2001; Bonnelye et al., 2007). Medium was replaced every second day and cells were cultured at 37° C. in a 5% CO2 humidified atmosphere for 15-20 days until mineralized bone nodules or cartilage nodules had formed in control cultures.
# (§2) Rat calvarial cells were plated into 24 well plates at 10^4 cells/well. Antisense oligonucleotide inhibition of ERRγ expression was accomplished with a 20-base phosphorothioate-modified oligonucleotide. Control dishes were treated with the complementary sense oligonucleotide or no oligonucleotide. Briefly, oligonucleotide concentrations that have been found previously not to be toxic (0.5 μM to 2 μM) were added directly to cells during the proliferation (day 1-5) or differentiation phase (day 5 (end of proliferation) to 11) in standard medium as above supplemented with 50 μg/ml ascorbic acid, 10 mM sodium β-glycerophosphate. Medium was changed every 2 days and fresh oligonucleotides were added at each change. At day 15, cultures were terminated and stained for alkaline phosphatase according to previous protocols (Bonnelye et al., 2001).
# [6] = system: C5.18 cells; assay: Cartilage nodule formation in C5.18 cell cultures after oligonucleotide treatment; format: cell-based, rat; conditions: C5.18 cultures, treated during differentiation phase
# Procedure: as §1, §2
molecule,measurement,setting,value
4-hydroxytamoxifen,activity on ERRγ (agonist/antagonist),[1],antagonize ERRγ
same,activity on ERRs (agonist/antagonist),[2],antagonists of ERRs
CN(C)CCOc1ccc(/C(=C(/CCCl)c2ccccc2)c2ccc(O)cc2)cc1 [4-hydroxytoremifene],activity on ERRγ (agonist/antagonist),[1],antagonize ERRγ
"O=c1cc(-c2ccc(O)c(O)c2)oc2ccc(O)cc12 [6,3′,4′-trihydroxyflavone]",activity on ERRs (agonist/antagonist),[2],agonists of ERRs
CC(C)c1ccc(/C=N/NC(=O)c2ccc(O)cc2)cc1 [GSK4716],activity on ERRγ (agonist/antagonist),[1],agonists of ERRγ
COc1cc(/C=C(\C#N)C(=O)Nc2nnc(C(F)(F)F)s2)ccc1OCc1ccc(C(F)(F)F)cc1C(F)(F)F [XCT790],activity on PGC-1/ERRα dependent signaling,[3],inverse agonists
COc1ccc(-c2coc3cc(O)cc(O)c3c2=O)cc1 [biochanin A],activity on ERRs (agonist/antagonist),[2],agonists of ERRs
ClC1=C(Cl)C2(Cl)C3C(Cl)C(Cl)CC3C1(Cl)C2(Cl)Cl (stereo not shown) [chlordane],effect on constitutive activity of ERRα,[4],suppress the constitutive activity of ERRα
O=c1c(-c2ccc(O)cc2)coc2cc(O)ccc12 [daidzein],activity on ERRs (agonist/antagonist),[2],agonists of ERRs
CC/C(=C(/CC)c1ccc(O)cc1)c1ccc(O)cc1 [diethylstilbestrol],activity on ERRs (agonist/antagonist),[2],antagonists of ERRs
O=c1c(-c2ccc(O)cc2)coc2cc(O)cc(O)c12 [genistein],activity on ERRs (agonist/antagonist),[2],agonists of ERRs
CC1(C)C(C(Cl)Cl)C2(Cl)C(Cl)C(Cl)C1(Cl)C2(Cl)Cl (stereo not shown) [toxaphene],effect on constitutive activity of ERRα,[4],suppress the constitutive activity of ERRα
"ggtGGTTGACGCTGTCCGTCagg (antisense GGTGGTTGACGCTGTCCGTCAGG; all phosphorothioate, sugars by position and methylation of C not given here) [antisense oligonucleotide]",bone nodule formation,"[5]; RC cultures, treated during differentiation phase (day 5 to 11)",significantly increased
same,bone nodule formation,"[5]; RC cultures, treated during proliferation phase (day 1-5)",significantly increased
same,bone nodule formation,"[5]; rat calvaria osteoblastic cells, treatment phase not stated",increases bone nodule formation
same,cartilage nodule formation,[6],tended to increase
